Measured values published in PubChem BioAssay (NCI).
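Cultured in 96-well plates, cells were exposed to test compound for 48 hours across five concentrations. The concentration for full growth arrest is given as TGI.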

What was measured:
Experiment in all cases: growth of human tumour cells (NCI), 48 h
786-0 renal = system: 786-0 renal
A549 NSCLC = system: A549 NSCLC
ACHN renal = system: ACHN renal
CAKI-1 renal = system: CAKI-1 renal
HOP-62 NSCLC = system: HOP-62 NSCLC
HT29 colon = system: HT29 colon
IGROV1 ovarian = system: IGROV1 ovarian
M14 melanoma = system: M14 melanoma
MDA-MB-231 breast = system: MDA-MB-231 breast
MDA-N = system: MDA-N
NCI-H460 lung = system: NCI-H460 lung
OVCAR-3 ovarian = system: OVCAR-3 ovarian
RPMI-8226 leukemia = system: RPMI-8226 leukemia
SF-268 CNS = system: SF-268 CNS
SF-539 CNS = system: SF-539 CNS
SN12C renal = system: SN12C renal
SNB-19 CNS = system: SNB-19 CNS
T-47D breast = system: T-47D breast
TK-10 renal = system: TK-10 renal
UO-31 renal = system: UO-31 renal

Row | SMILES | TGI (786-0 renal) [µM] | TGI (A549 NSCLC) [µM] | TGI (ACHN renal) [µM] | TGI (CAKI-1 renal) [µM] | TGI (HOP-62 NSCLC) [µM] | TGI (HT29 colon) [µM] | TGI (IGROV1 ovarian) [µM] | TGI (M14 melanoma) [µM] | TGI (MDA-MB-231 breast) [µM] | TGI (MDA-N) [µM] | TGI (NCI-H460 lung) [µM] | TGI (OVCAR-3 ovarian) [µM] | TGI (RPMI-8226 leukemia) [µM] | TGI (SF-268 CNS) [µM] | TGI (SF-539 CNS) [µM] | TGI (SN12C renal) [µM] | TGI (SNB-19 CNS) [µM] | TGI (T-47D breast) [µM] | TGI (TK-10 renal) [µM] | TGI (UO-31 renal) [µM]
1 | O=C(NNC(=O)c1ccccc1O)c1cccc(Br)c1 | > 100 | > 100 | > 100 | > 100 | > 100 | > 100 | > 100 | > 100 | > 77.7 | > 100 | > 100 | > 100 | > 100 | > 100 | > 100 | > 100 | > 100 | > 100 | > 100 | > 100
2 | CC(=O)OCC1OC(n2c(C)cc(C)c(C#N)c2=S)C(OC(C)=O)C(OC(C)=O)C1OC(C)=O (stereo not given) | > 100 | > 100 | > 100 | > 100 | > 100 | > 100 | > 100 | > 100 | > 100 | > 100 | > 100 | > 100 | > 100 | > 100 | > 100 | > 100 | > 100 | > 100 | > 100 | > 100
3 | CC(Oc1ccc(Cl)cc1Cl)C(=O)NN1C(=O)CSC1c1ccccc1 (stereo not given) | > 100 | > 100 | > 100 | 40 | > 100 | > 100 | > 100 | > 100 | > 100 | > 100 | > 100 | > 100 | > 100 | > 100 | > 100 | > 100 | > 100 | > 100 | > 100 | > 100
4 | CC1OC(OC2C(OC(=O)[C@]34CCC(C)(C)C[C@H]3C3=CC[C@@H]5[C@@]6(C)CC[C@H](OC7OC(CO)C(O)C(O)C7OC7OC(CO)C(O)C(O)C7O)C(C)(C)[C@@H]6CC[C@@]5(C)[C@]3(C)CC4)OCC(O)C2O)C(O)C(OC2OCC(O)C(O)C2O)C1OC1OCC(O)C(OC2OCC(O)C(O)C2O)C1O (stereo not given in full) | 62.6 | 15 | 25.9 | 21.8 | 29.6 | 14.2 | > 67.4 | 6.3 | 26.9 | 5.77 | > 100 | > 100 | 24 | 33.1 | > 100 | 5.56 | 49.5 | 51.8 | 29.8 | 4.98
5 | O=C(N(O)c1ccccc1Cl)C(O)(c1ccccc1)c1ccccc1 | > 100 | > 100 | > 100 | > 100 | > 100 | > 100 | > 100 | > 100 | > 100 | > 100 | > 100 | > 100 | 69 | > 100 | > 100 | > 100 | > 100 | > 100 | > 100 | 57.9
6 | CCOC(=O)C(CCN1CCC2(CC1)C(=O)N(C)CN2c1ccccc1)C(=O)OCC | > 100 | > 100 | > 100 | > 100 | > 100 | > 100 | > 100 | > 100 | > 100 | > 100 | > 100 | > 100 | > 100 | > 100 | > 100 | > 100 | > 100 | > 100 | > 100 | > 100
7 | COc1cccc2nc3c(C(=O)NCCN(C)C)cccc3cc12 | 12.5 | 4.49 | 2.85 | 4.18 | 7.1 | 7.61 | 11 | 4.37 | 9.27 | 8.42 | 4.44 | 12.3 | 19.1 | 15.5 | 7.9 | 8.35 | 15.9 | 16.7 | 10.8 | 2.99
8 | Nc1ccccc1N=Cc1cc2cc([N+](=O)[O-])ccc2s1 | 29.2 | 30.9 | 40.3 | > 100 | 31.7 | > 100 | 99.3 | 82.8 | 39.2 | > 100 | 47.5 | 30.1 | 46.8 | 35.6 | 27.4 | > 100 | 46.6 | 20.8 | 29.6 | 48.8
9 | Cn1c2ccccc2c(=O)c2cccc(C(=O)NC(CS)C(=O)O)c21 (stereo not given) | > 100 | > 100 | > 100 | > 100 | > 100 | > 100 | > 100 | > 100 | > 100 | > 100 | > 100 | > 100 | > 100 | > 100 | > 100 | > 100 | > 100 | > 100 | > 100 | > 100
10 | CC(=O)OCC1OC(OC2CC3C(C)(C)C(O)CC[C@]3(C)C3CCC45CC4(CCC5[C@@H](C)CC(O)C(O)C(C)(C)O)[C@]23C)C(O)C(O)C1O (stereo not given in full) | > 10 | > 10 | > 10 | > 10 | > 10 | > 10 | > 10 | > 10 | > 10 | > 10 | > 10 | > 10 | > 10 | > 10 | > 10 | > 10 | > 10 | > 10 | > 10 | > 10
11 | CC1CN=C(N(C(=O)Nc2ccccc2)c2ccc(Cl)c(Cl)c2)S1 (stereo not given) | 93.8 | > 100 | > 100 | > 100 | > 100 | 78 | > 100 | > 100 | > 100 | > 10 | 53.1 | > 10 | > 100 | > 100 | > 100 | 56.6 | > 100 | > 100 | > 100 | > 100
12 | CCOC(=O)/C=C(/C(=O)OCC)n1cnc2c(=O)[nH]c(NC(C)=O)nc21 | > 100 | > 100 | > 100 | > 100 | > 100 | > 100 | > 100 | > 100 | > 100 | > 100 | > 100 | > 100 | > 100 | > 100 | > 100 | > 100 | > 100 | > 100 | > 100 | > 100
13 | O=C(O)CCSC(CC1(c2ccc(Cl)cc2)NC(=O)CCS1)c1ccccc1 (stereo not given) | 20.9 | > 63.1 | > 59.4 | 37.3 | 44.1 | 38.1 | 31.7 | 50.9 | 46.6 | 31.8 | 64.7 | 41.5 | > 100 | 38.4 | 27.3 | 33.4 | > 56.1 | > 60 | 36 | > 54.8
14 | CN(C)/N=C1/CCC(C(F)(F)F)(C(F)(F)F)O1 | 93.4 | > 100 | > 100 | > 100 | 85 | > 100 | 82.7 | 68.1 | 57.4 | > 100 | > 100 | 50.7 | 85.5 | > 100 | > 100 | 81 | > 100 | > 100 | > 100 | 98.2
15 | Cc1cc(/N=C/c2ccc(F)cc2)n(-c2ccccc2)n1 | > 100 | > 100 | > 100 | > 100 | > 100 | > 100 | > 100 | > 100 | > 100 | > 100 | > 100 | > 100 | 92.8 | > 100 | > 100 | > 100 | > 100 | > 100 | > 100 | > 100
16 | O=c1nc(N2CCNCC2)oc2cc(Cl)oc(=O)c12 | 8.66 | 20.2 | 23.5 | 9.49 | 14 | 12.9 | 16.6 | 7.94 | 35.7 | 9.06 | 22.4 | 15.2 | 5.62 | 15.9 | 11.8 | 33.1 | 36.7 | > 21.7 | 23.9 | 23
17 | [N-]=[N+]=CC(=O)OC1Cc2ccccc2C1 | > 100 | > 100 | 81.9 | > 35.3 | > 100 | > 100 | > 100 | > 100 | > 100 | > 100 | > 100 | > 100 | > 100 | > 100 | > 100 | > 100 | > 100 | > 100 | > 100 | 35.8
18 | CC(=O)N(C)CCc1c[nH]c2ccccc12 | > 100 | > 100 | > 100 | > 100 | > 100 | > 100 | > 100 | > 100 | > 100 | > 100 | > 100 | > 100 | > 100 | > 100 | > 100 | > 100 | > 100 | > 100 | > 100 | > 100
19 | [N-]=[N+]=NCc1nc(N)c2c3c(sc2n1)CCCC3 | 1.55 | 36.6 | 14.1 | 8.32 | 18.3 | 3.15 | 2.92 | 17.7 | 80.6 | 13.9 | 13.6 | 11.8 | > 24.9 | 6.23 | 3.46 | 10.2 | 21.4 | 63.3 | 26.5 | 0.227
20 | Cc1ccc(Cl)c2c(=O)c3ccc(N)cc3sc12 | > 100 | 85.3 | 57.5 | > 100 | 52.8 | 38.5 | 28.7 | > 100 | 74.8 | > 100 | > 100 | 47.7 | 42.3 | > 100 | 45.1 | 32.9 | > 100 | 87.1 | > 100 | 41.2
21 | CCOC(=O)/C=C(\C(=O)OCC)n1ccc(=O)n(Cc2cn(CCCCOC(C)=O)nn2)c1=O | > 51.1 | 45.9 | 11.4 | 8.57 | 41.2 | 21.7 | 43 | 54.8 | 39.1 | 42.6 | 57.7 | 29.2 | > 36 | 36.9 | 5.65 | 43 | > 55.6 | > 41 | 13.6 | 28.6
22 | COc1ccc(N=NC(=O)NC(CC(C)C)C(=O)NC(C)C(=O)O)cc1 (stereo not given) | > 100 | > 51.2 | > 100 | > 100 | > 100 | > 100 | > 100 | > 100 | > 100 | > 100 | > 89 | > 100 | > 100 | > 100 | 14.4 | > 100 | > 100 | > 45.3 | > 100 | > 26.6
23 | CC1(C)OC2C(O)C(CO)OC2(C(F)F)O1 (stereo not given) | > 100 | > 100 | > 100 | > 100 | > 100 | > 100 | > 100 | > 100 | > 100 | > 100 | > 100 | > 100 | > 100 | > 100 | > 100 | > 100 | > 100 | > 100 | > 100 | > 100
